Measurements from US10975055B2, “Inhibitors of interleukin-1 receptor-associated kinases and uses thereof” (Dana-Farber Cancer Institute, Inc., priority 2016, dated 2021).
Read-outs that look alike come from different tables or passages of the source.

What was measured:
IRAK1 = IRAK1 (Homo sapiens, UniProt P51617); test: IRAK1 Alexa kinase assay (TR-FRET, ADP tracer); format: biochemical
Description: (§1) Select compounds described herein were evaluated for structure-activity analyses. For IRAK1, the following Alexa kinase assay procedure was followed: in the absence of an inhibitor, ADP formed by a kinase reaction will displace an Alexa Fluor 647 dye-labeled ADP tracer from an Eu3+-labeled anti-ADP antibody, resulting in a decrease in the time-resolved fluorescence resonance energy transfer (TR-FRET) signal. In the presence of an inhibitor, the amount of ADP formed by the kinase reaction is reduced, and the resulting intact antibody-tracer interaction produces a high TR-FRET signal. For IRAK4, the following Z-lyte kinase assay procedure was followed: phosphorylation-dependent protease susceptibility of a double-labeled peptide substrate is detected using fluorescence resonance energy transfer (FRET).

IRAK4 = molecular target: T1, IRAK4 (Homo sapiens, UniProt Q9NWZ3); test: IRAK4 Z-lyte kinase assay (FRET peptide substrate); format: biochemical
T1 sequence (Q9NWZ3 1-460): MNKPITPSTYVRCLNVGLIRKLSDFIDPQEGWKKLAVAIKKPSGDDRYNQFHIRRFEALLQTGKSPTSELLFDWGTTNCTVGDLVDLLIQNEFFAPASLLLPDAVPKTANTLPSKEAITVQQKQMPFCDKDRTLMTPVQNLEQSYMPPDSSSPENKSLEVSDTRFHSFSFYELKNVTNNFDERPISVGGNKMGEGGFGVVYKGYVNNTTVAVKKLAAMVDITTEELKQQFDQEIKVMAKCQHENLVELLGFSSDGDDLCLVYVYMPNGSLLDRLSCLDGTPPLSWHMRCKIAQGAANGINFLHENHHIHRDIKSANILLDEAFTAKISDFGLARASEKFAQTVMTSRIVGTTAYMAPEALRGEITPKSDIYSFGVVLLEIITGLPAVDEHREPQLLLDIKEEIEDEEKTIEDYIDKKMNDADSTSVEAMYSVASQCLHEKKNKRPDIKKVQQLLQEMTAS
Description: as §1

[1] = tested on: kinome (off-targets YSK4 and MEK3); test: Kinome selectivity (kinome tree); format: biochemical
IRAK1 cysteine 302 = IRAK1 cysteine 302 (Homo sapiens, UniProt P51617); test: Mass spec labelling studies; format: binding
Chain of IRAK1 cysteine 302 (P51617 whole entry): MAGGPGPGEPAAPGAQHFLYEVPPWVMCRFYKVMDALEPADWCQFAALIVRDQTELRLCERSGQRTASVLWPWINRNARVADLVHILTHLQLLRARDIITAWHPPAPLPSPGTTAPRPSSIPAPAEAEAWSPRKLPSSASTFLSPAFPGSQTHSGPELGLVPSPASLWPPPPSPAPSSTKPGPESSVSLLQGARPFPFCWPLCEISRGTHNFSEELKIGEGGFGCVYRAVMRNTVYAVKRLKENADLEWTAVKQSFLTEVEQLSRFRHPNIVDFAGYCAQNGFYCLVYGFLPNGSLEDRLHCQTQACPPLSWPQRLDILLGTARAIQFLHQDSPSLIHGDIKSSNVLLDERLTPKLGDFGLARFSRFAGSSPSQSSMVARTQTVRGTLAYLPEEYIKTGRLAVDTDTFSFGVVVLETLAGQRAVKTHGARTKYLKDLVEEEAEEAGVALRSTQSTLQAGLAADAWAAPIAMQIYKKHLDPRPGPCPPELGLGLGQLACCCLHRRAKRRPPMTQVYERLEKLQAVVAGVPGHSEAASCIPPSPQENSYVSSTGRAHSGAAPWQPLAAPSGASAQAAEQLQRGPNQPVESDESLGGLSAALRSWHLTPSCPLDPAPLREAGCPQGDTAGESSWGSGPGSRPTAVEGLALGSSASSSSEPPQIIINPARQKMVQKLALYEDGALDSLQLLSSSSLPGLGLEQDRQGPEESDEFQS

[2] = tested on: MYD88 mutated WM and ABC DLBCL cells; test: Antiproliferative effects, single agent; format: cell-based
[3] = tested on: Waldenstrom's, DLBCL, and Burkitt Lymphoma cell lines; test: Cellular data for covalent IRAK1 inhibitors: cell killing; format: cell-based
[4] = tested on: MYD88 mutated WM and ABC-DLBCL cells; test: Synergism evaluation with Ibrutinib: tumor cell killing; format: cell-based; details: for Combination Index (CI): synergism evaluation with Ibrutinib
NF-κB activation = NF-κB activation under combination with Ibrutinib; format: cell-based
In vivo PK studies = details: dosed IV
[5] = tested on: WM patients' bone marrow LPCs; test: Tumor cell killing in WM patients' bone marrow LPCs; format: cell-based, human; details: combination with BTK inhibitor Ibrutinib

Chain of IRAK1 (P51617 whole entry): as above

Compound | IC50 (IRAK1; read-out: IRAK1 IC50) [nM] | IC50 (IRAK4; Table 1, read-out: IC50 IRAK4) [nM] | IC50 (IRAK1; Table 1, read-out: IC50 IRAK1) [nM] | IC50 (IRAK4; read-out: IRAK4 IC50) [nM] | other results
C=CC(=O)Nc1cccc(C(=O)Nc2ccc(NC(=O)c3cccc(-c4ccn[nH]4)n3)cc2)c1 [JH-X-119-01] | 9.3 | > 10000 |  |  | inhibition of IRAK4 (IRAK4; at concentrations up to 10 μM): no inhibition; kinome selectivity: off-target inhibition [1]: only two kinases, YSK4 and MEK3; labelling of IRAK1 (mass spec) (IRAK1 cysteine 302): irreversibly labelled IRAK1 at cysteine 302; antiproliferative effects [2]: antiproliferative effects; cell killing ED50 [3]: micromolar; tumor cell killing, combination with Ibrutinib ([4]; combination with Ibrutinib, MYD88 mutated WM and ABC-DLBCL cells): synergistic tumor cell killing; Combination Index (CI) [4]: < 1.0; NF-κB activation, combination with Ibrutinib (NF-κB activation): suppression; Cmax (In vivo PK studies): 9.95 µM; clearance (In vivo PK studies): 18.8 mL/min/kg; half-life (In vivo PK studies): 1.61 h; tumor cells killing in WM patients' bone marrow LPCs [5]: more robust tumor cells killing
C=CC(=O)Nc1ccc(C(=O)Nc2ccc(NC(=O)c3cccc(-c4ccn[nH]4)n3)cc2)cc1 [JH-X-119-02] |  | > 10000 | 47 |  | 
C=CC(=O)Nc1ccc(C(=O)Nc2cccc(NC(=O)c3cccc(-c4ccn[nH]4)n3)c2)cc1 [JH-X-119-03] |  |  | 55 |  | 
C=CC(=O)Nc1cccc(C(=O)Nc2cccc(NC(=O)c3cccc(-c4ccn[nH]4)n3)c2)c1 [JH-X-119-04] |  | > 10000 | 25 |  | 
CCC(=O)Nc1cccc(C(=O)Nc2ccc(NC(=O)c3cccc(-c4ccn[nH]4)n3)cc2)c1 [JH-X-159] |  | > 10000 | 259 |  | 
CN(C)C/C=C/C(=O)Nc1cccc(C(=O)Nc2ccc(NC(=O)c3cccc(-c4ccn[nH]4)n3)cc2)c1 [JH-X-198] |  | > 10000 | 51 |  | Combination Index (CI) [4]: < 1.0
C=CC(=O)N[C@H]1CC[C@H](NC(=O)c2ccc(NC(=O)c3cccc(-c4ccn[nH]4)n3)cc2)CC1 [JH-XII-200-1, N-(4-(((1r,4r)-4-acrylamidocyclohexyl)carbamoyl)phenyl)-6-(1H-pyrazol-5-yl)picolinamide] | 46 |  |  | 154 | 
C=CC(=O)N[C@H]1CCC[C@@H](NC(=O)c2ccc(NC(=O)c3cccc(-c4ccn[nH]4)n3)cc2)C1 [JH-XII-200-2, N-(4-(((1R,3S)-3-acrylamidocyclohexyl)carbamoyl)phenyl)-6-(1H-pyrazol-5-yl)picolinamide] | 24 |  |  | 648 | 
C=CC(=O)NC12CC(NC(=O)c3ccc(NC(=O)c4cccc(-c5ccn[nH]5)n4)cc3)(C1)C2 [JH-XII-200-3, N-(4-((3-acrylamidobicyclo[1.1.1]pentan-1-yl)carbamoyl)phenyl)-6-(1H-pyrazol-5-yl)picolinamide] | 51 |  |  | 607 | 
C=CC(=O)N[C@H]1CC[C@H](C(=O)Nc2ccc(NC(=O)c3cccc(-c4ccn[nH]4)n3)cc2)CC1 [JH-XII-205-1, N-(4-((1r,4r)-4-acrylamidocyclohexane-1-carboxamido)phenyl)-6-(1H-pyrazol-5-yl)picolinamide] | 88 |  |  | 1110 | 
C=CC(=O)N[C@H]1CCC[C@@H](C(=O)Nc2ccc(NC(=O)c3cccc(-c4ccn[nH]4)n3)cc2)C1 [JH-XII-205-2, N-(4-((1R,3S)-3-acrylamidocyclohexane-1-carboxamido)phenyl)-6-(1H-pyrazol-5-yl)picolinamide] | 72 | > 10000 |  | > 10000 | 
C=CC(=O)Nc1cccc(C(=O)Nc2ccc(NC(=O)c3cccc(-c4cnoc4)n3)cc2)c1 [JH-XIII-80-1, N-(4-(3-acrylamidobenzamido)phenyl)-6-(isoxazol-4-yl)picolinamide] | 12 | > 10000 |  | > 10000 | 
C=CC(=O)Nc1cccc(C(=O)Nc2ccc(NC(=O)c3cccc(-c4cnn(C)c4)n3)cc2)c1 [JH-XIII-80-2, N-(4-(3-acrylamidobenzamido)phenyl)-6-(1-methyl-1H-pyrazol-4-yl)picolinamide] | 67 | > 10000 |  | > 10000 | 
C=CC(=O)Nc1cccc(C(=O)Nc2ccc(NC(=O)c3cccc(-c4cn[nH]c4)n3)cc2)c1 [JH-XIII-80-3, N-(4-(3-acrylamidobenzamido)phenyl)-6-(1H-pyrazol-4-yl)picolinamide] | 22 | > 10000 |  | > 10000 | 
C=CC(=O)Nc1cccc(-c2cn(-c3ccc(NC(=O)c4cccc(-c5ccn[nH]5)n4)cc3)nn2)c1 [JH-XIII-96-2, N-(4-(4-(3-acrylamidophenyl)-1H-1,2,3-triazol-1-yl)phenyl)-6-(1H-pyrazol-5-yl)picolinamide] | 40 | > 10000 |  | > 10000 | 
N-(4-(4-acrylamidobenzamido)phenyl)-[2,3′-bipyridine]-6-carboxamide [JH-XIII-77] | 80 | > 10000 |  | > 10000 | 
